Laboratory results published in the supplement of paper PMC11061612.

Legend:
Assay in all cases: combination Emax (second highest fraction inhibited in the dose matrix, 72 h); higher = more inhibition; extreme values may be limits of the assay
[1] = test system: SU-DHL-10 (B-Cell Non-Hodgkin's Lymphoma)
Method in brief: (§1)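 Cell lines grown in DMEM/F12 or RPMI with 10% FBS were plated in 1536-well plates and held 24 hours at 37°C, 5% CO2 before 72 hours of exposure to two-drug dose matrices, with DMSO typically at 0.2%. CellTiter-Glo 2.0 luminescence gave viability, which was converted to inhibition. Vehicle wells were set to 0 and blank wells to 1. Combination Emax is the second-highest inhibition in the matrix, and Bliss excess is the observed combination effect minus the expected EA + EB − EA·EB, where EA and EB are the single-agent effects.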

[2] = test system: OVMIU (Ovarian Carcinoma)
Method in brief: as §1

[3] = test system: HCT-15 (Colorectal Carcinoma)
Method in brief: as §1

[4] = test system: NCI-H446 (Small Cell Lung Carcinoma)
Method in brief: as §1

[5] = test system: GP5d (Colorectal Carcinoma)
Method in brief: as §1

[6] = test system: HSC-39 (Gastric Carcinoma)
Method in brief: as §1

[7] = test system: SHP-77 (Small Cell Lung Carcinoma)
Method in brief: as §1

[8] = test system: MKN45 (Gastric Carcinoma)
Method in brief: as §1

[9] = test system: PSN1 (Pancreatic Carcinoma)
Method in brief: as §1

[10] = test system: RERF-GC-1B (Gastric Carcinoma)
Method in brief: as §1

[11] = test system: VAL (B-Cell Non-Hodgkin's Lymphoma)
Method in brief: as §1

[12] = test system: RCM-1 (Colorectal Carcinoma)
Method in brief: as §1

[13] = test system: OPM-2 (Plasma Cell Myeloma)
Method in brief: as §1

A2058 (Melanoma) = test system: A2058 (Melanoma)
Method in brief: as §1

[14] = test system: RKN (Other Solid Carcinomas)
Method in brief: as §1

[15] = test system: PC-3_[JPC-3] (Lung Adenocarcinoma)
Method in brief: as §1

[16] = test system: FADU (Head and Neck Carcinoma)
Method in brief: as §1

[17] = test system: TE-8 (Esophageal Squamous Cell Carcinoma)
Method in brief: as §1

[18] = test system: L-1236 (Hodgkin's Lymphoma)
Method in brief: as §1

GB-1 (Glioblastoma) = test system: GB-1 (Glioblastoma)
Method in brief: as §1

SMILES	combination Emax [1]	combination Emax [2]	combination Emax [3]	combination Emax [4]	combination Emax [5]	combination Emax [6]	combination Emax [7]	combination Emax [8]	combination Emax [9]	combination Emax [10]	combination Emax [11]	combination Emax [12]	combination Emax [13]	combination Emax (A2058 (Melanoma))	combination Emax [14]	combination Emax [15]	combination Emax [16]	combination Emax [17]	combination Emax [18]	combination Emax (GB-1 (Glioblastoma))
C[C@@H]1COCCN1c1cc(C2([S@](C)(=N)=O)CC2)nc(-c2ccnc3[nH]ccc23)n1 [AZD6738] + O=C(c1cc(Cc2n[nH]c(=O)c3ccccc23)ccc1F)N1CCN(C(=O)C2CC2)CC1 [Olaparib] (first compound max 10 µM, 7x7, partner max 10 µM)	0.944	0.429	0.832	0.811	0.823	1	0.754	0.763	0.5	0.442	0.909	0.623	0.75	0.205	0.228	0.359	0.775	0.757	0.583	0.478
CCc1c2c(nc3ccc(O)cc13)-c1cc3c(c(=O)n1C2)COC(=O)[C@]3(O)CC [SN-38] + CN(C)CCCOc1ccc(-c2ccc3ncc4c(c3c2)n(C2CCOCC2)c(=O)n4C)cn1 [AZD0156] (first compound max 0.3 µM, 7x7, partner max 1 µM)	0.986	0.32	0.943	0.818	0.655	0.964	0.48	0.815	0.705	0.788	0.944	0.86	0.772	0.401	0.631	0.732	1	0.69	0.76	0.735
CC1(C)CCC(CN2CCN(c3ccc(C(=O)NS(=O)(=O)c4ccc(NCC5CCOCC5)c([N+](=O)[O-])c4)c(Oc4cnc5[nH]ccc5c4)c3)CC2)=C(c2ccc(Cl)cc2)C1 [Venetoclax] + CN(C)CCCOc1ccc(-c2ccc3ncc4c(c3c2)n(C2CCOCC2)c(=O)n4C)cn1 [AZD0156] (first compound max 1 µM, 7x7, partner max 1 µM)	0.137	0.345	0.226	0.304	0.279	0.926	0.424	0.688	0.3	0.242	1	0.45	0.574	0.226	0.107	0.25	0.196	0.519	0.705	0.115
Cn1cnc2c(F)c(Nc3ccc(Br)cc3Cl)c(C(=O)NOCCO)cc21 [Selumetinib] + CCN(CCO)CCCOc1ccc2c(Nc3cc(CC(=O)Nc4cccc(F)c4)[nH]n3)ncnc2c1 [AZD2811] (first compound max 10 µM, 7x7, partner max 1 µM)	0.738	0.407	0.28	0.91	0.842	0.903	0.362	0.674	0.708	0.436	0.678	0.656	0.356	0.649	0.352	0.189	0.467	0.347	0.289	0.117
COc1cc2c(cc1OCCCCCOc1cc3c(cc1OC)C(=O)N1C=C(C)C[C@H]1C=N3)N=C[C@@H]1CC(C)=CN1C2=O [SG3199] + O=C(c1cc(Cc2n[nH]c(=O)c3ccccc23)ccc1F)N1CCN(C(=O)C2CC2)CC1 [Olaparib] (first compound max 0.001 µM, 7x7, partner max 10 µM)	0.23	0.0896	0.264	0.285	0.189	0.185	0.223	0.0741	0.127	0.245	0.57	0.0628	0.0651	0.141	0.0618	0.193	0.115	0.109	0.196	0.141
CN(CCO)CC[C@H](CSc1ccccc1)Nc1ccc(S(=O)(=O)NC(=O)c2ccc(N3CCC([C@@H](O)c4ccccc4-c4ccc(Cl)cc4)CC3)cc2)cc1S(=O)(=O)C(F)(F)F [AZD4320] + C[C@@H]1COCCN1C2=NC(=NC(=C2)C3(CC3)[S@](=N)(=O)C)C4=C5C=CNC5=NC=C4 [AZD6738] (first compound max 1 µM, 7x7, partner max 10 µM)	0.899	0.824	0.756	0.941	0.859	1	0.662	0.8	0.453	0.621	1	0.862	0.927	0.782	0.242	0.375	0.583	0.799	0.992	0.55
